Source: ChEMBL document CHEMBL1141819, “Antimycobacterial triterpenes from Melia volkensii” (1999)
In brackets after ≈: the same amount, converted by molar mass.

Tested on: Mycobacterium tuberculosis
Test: Antimycobacterial activity against Mycobacterium tuberculosis H37Rv ATCC 27294 by radiorespirometric bioassay
Assay type: functional

Row | SMILES | MIC [µg/mL]
1 | CC(C)=CCC[C@H]1C(=O)O[C@H]2C[C@]3(C)C4=CC[C@H]5C(C)(C)C(=O)CC[C@]5(C)[C@H]4C[C@@H](O)[C@@]3(C)[C@@H]21 | 16 (≈ 34.1 µM)
2 | CC(C)=CCC[C@H]1C(=O)O[C@H]2C[C@]3(C)C4=C[C@@H](O)[C@H]5C(C)(C)C(=O)CC[C@]5(C)[C@H]4CC[C@@]3(C)[C@@H]21 | 4 (≈ 8.53 µM)
3 | CC(=O)[C@H](CCC=C(C)C)[C@@H]1[C@@H](O)C[C@]2(C)C3=CC[C@H]4C(C)(C)C(=O)CC[C@]4(C)[C@H]3CC[C@@]12C [KULONATE] | 16 (≈ 34.1 µM)
